Where “and” joins values, the source holds several entries; their conditions need not be identical. Equal entries are not always repeated. Where two headings read alike, the source gives them in different places.
Target: HIV-1LAI envelope gp120 (Human immunodeficiency virus type 1 group M subtype B, UniProt P03377)
Assay type: binding
Conditions: for Counts per 20′ Average-background: CCR5 18-mer scan, radiolabeled HIV-1LAI gp120; for Relative % of Control: CXCR4 (1-18) alanine variants, mean of two syntheses and binding experiments ± average deviation, wild-type = 100%; for number of radioactive decays (counts) counted: human CD4 21-mer scan, empty control 2075
[1] = STRL33 18-mer scan, background subtracted, first of two count columns
[2] = STRL33 18-mer scan, background subtracted, second of two count columns
[3] = Panel D, 9-mers and 12-mers of CD4, empty control […]
[4] = CXCR4 18-mer scan, background subtracted, empty control 0
[5] = CXCR4 18-mer scan, empty control 412
[6] = Panel B, 15-mers and 18-mers of CD4, empty control 575
[7] = Panel C, 15-mers and 18-mers of CD4, empty control 556
[8] = Panel E, 9-mers and 12-mers of CD4, empty control 571
[9] = Panel A, 21-mers of CD4, empty control 515 and 617
[10] = Panel F, sequential alanine replacements of CD4 polypeptides, duplicate series, empty control 569

FSGIFFIILLTIDRYLAV [CCR5 segment 113-]
Counts per 20′ Average-background (background subtracted): 83 counts per 20′

GFSSFNDSSQEEEQAFLQ
Binding Results For Window Length (counts bound-background), 9 (STRL33 amino terminus, 9-mer starting at the first residue of the printed sequence, background subtracted): 171 counts | Binding Results For Window Length (counts bound-background), 12 (STRL33 amino terminus, 12-mer starting at the first residue of the printed sequence, background subtracted): 480 counts | Binding Results For Window Length (counts bound-background), 15 (STRL33 amino terminus, 15-mer starting at the first residue of the printed sequence, background subtracted): 270 counts | Binding Results For Window Length (counts bound-background), 18 (STRL33 amino terminus, 18-mer starting at the first residue of the printed sequence, background subtracted): 1639 counts

FGQVMCKSLLGIYTINFY
radioactive counts recorded in twenty minutes [1]: 1257.5 counts | radioactive counts recorded in twenty minutes [2]: 1354.5 counts

FGLTANSDT
COUNTS of radiolabeled gp120 retained [3]: 563 counts

DRYLAIVHATNSQRPRKL
radioactive counts recorded in twenty minutes [4]: 168 counts | radioactive counts recorded in twenty minutes [5]: 580 counts

VFGLTANSDTHLLQGQSL
COUNTS of radiolabeled gp120 retained [6]: 531 counts

AVRLIFTIMTVYFLFWAP [CCR5 segment 233-]
Counts per 20′ Average-background (background subtracted): 62 counts per 20′

LIIKNLKIEDSDTYICEV
COUNTS of radiolabeled gp120 retained [6]: 634 counts

EFKIDIVVLAFQKAS
COUNTS of radiolabeled gp120 retained [7]: 1188 counts

DTHLLQGQS
COUNTS of radiolabeled gp120 retained [3]: 578 counts

NQKKVEFKIDIV
COUNTS of radiolabeled gp120 retained [8]: 532 counts

MEGISAYTSDNYTEEMGS
Relative % of Control: 2 ± 1%

EFSFPLAFTVEKLTGSGELWW
COUNTS of radiolabeled gp120 retained [9]: 681 counts

LLTQMPFNLMKFIRSTHW
radioactive counts recorded in twenty minutes [1]: 2513.5 counts | radioactive counts recorded in twenty minutes [2]: 3154.5 counts

QNQKKVEFKIDI
COUNTS of radiolabeled gp120 retained [8]: 559 counts

EVEDQKEEVQLL
COUNTS of radiolabeled gp120 retained [3]: 508 counts

PLAFTVEKL
COUNTS of radiolabeled gp120 retained [8]: 597 counts

AEGISIYTSDNYTEEMGS [CXCR4 (1-18) variant M1A]
Relative % of Control: 118 ± 18%

DQGNFPLIIKNL
COUNTS of radiolabeled gp120 retained [3]: 604 counts

LAFQKASSIVYKKEGEQVEFS
COUNTS of radiolabeled gp120 retained [9]: 1410 counts

EFKIDIVVLAFQKASSIV
COUNTS of radiolabeled gp120 retained [7]: 799 counts

MYLVVFVCGLVGNSLVLV [STRL33 segment 37-54]
radioactive counts recorded in twenty minutes [1]: 168.5 counts | radioactive counts recorded in twenty minutes [2]: 235.5 counts

VVLAFQKASSIVYKK
COUNTS of radiolabeled gp120 retained [7]: 577 counts

YAFVGEKFRNYLLVFFQK [CCR5 segment 297-]
Counts per 20′ Average-background (background subtracted): 596 counts per 20′

HLLQGQSLTLTLESP
COUNTS of radiolabeled gp120 retained [6]: 1277 counts

FPLAFTVEK
COUNTS of radiolabeled gp120 retained [8]: 569 counts

EEVQLLVFGLTTNSD
COUNTS of radiolabeled gp120 retained [10]: 20021 counts and 20100 counts

QKKVEFKIDIVVLAFQKA
COUNTS of radiolabeled gp120 retained [7]: 1013 counts

TVNLYSSVLILAFISLDR
radioactive counts recorded in twenty minutes [4]: 242 counts | radioactive counts recorded in twenty minutes [5]: 654 counts

VTQDPKLQMGKKLPLHLTLPQ [human CD4 266-286]
number of radioactive decays (counts) counted: 2075 counts

EEVQLLVFGLTANSD
COUNTS of radiolabeled gp120 retained [6]: 6423 counts | COUNTS of radiolabeled gp120 retained [10]: 18721 counts and 18582 counts and 19738 counts and 21338 counts | COUNTS of radiolabeled gp120 retained (Panel G, alanine replacements and serial truncations (Z) of CD4 polypeptides, empty control 580): 18040 counts and 23357 counts

DTYICEVEDQKEEVQ
COUNTS of radiolabeled gp120 retained [6]: 1071 counts

PLIIKNLKIEDSDTY
COUNTS of radiolabeled gp120 retained [6]: 661 counts

QKEEVQLLVFGLTAN
COUNTS of radiolabeled gp120 retained [6]: 3770 counts

THLLAGQSLTLTLES
COUNTS of radiolabeled gp120 retained [10]: 4578 counts and 2956 counts

TCSSHFPYSQYQFWKNFQ [CCR5 segment 177-]
Counts per 20′ Average-background (background subtracted): 367 counts per 20′

QVEFSFPLLA
Gp120 Bound (counts) (active CD4 fragments: 9-, 12-, 15-, 18- and 21-mers, background not subtracted): 1205 counts

ILAFFACWLPYYIGISID [CXCR4 segment 245-262]
radioactive counts recorded in twenty minutes [4]: 184 counts | radioactive counts recorded in twenty minutes [5]: 596 counts

DSDTYICEV
COUNTS of radiolabeled gp120 retained [3]: 712 counts

YICEVEDQKEEVQLL
COUNTS of radiolabeled gp120 retained [6]: 1064 counts

KEGEQVEFSFPLAFTVEK
COUNTS of radiolabeled gp120 retained [7]: 3117 counts

QKASSIVYKKEGEQVEFS
COUNTS of radiolabeled gp120 retained [7]: 602 counts

KVEFKIDIVVLAFQKASS
COUNTS of radiolabeled gp120 retained [7]: 1011 counts

KLLAEKVVYVGVWIPALL
radioactive counts recorded in twenty minutes [4]: 89 counts | radioactive counts recorded in twenty minutes [5]: 501 counts

KLICGYHDEAISTVVLAT [STRL33 segment 177-194]
radioactive counts recorded in twenty minutes [1]: 1363.5 counts | radioactive counts recorded in twenty minutes [2]: 1604.5 counts

VFGLTANSD
COUNTS of radiolabeled gp120 retained [3]: 549 counts

EDSDTYICEVED
COUNTS of radiolabeled gp120 retained [3]: 956 counts

VLGGVAGLLLFIGLGIFFCVR [human CD4 401-421]
number of radioactive decays (counts) counted: 3738 counts

TVEKLTGSGELW
COUNTS of radiolabeled gp120 retained [8]: 573 counts

KKVEFKIDIVVL
COUNTS of radiolabeled gp120 retained [8]: 597 counts

ESNIKVLPTWSTPVQPMALIV [human CD4 381-401]
number of radioactive decays (counts) counted: 1992 counts

ATNSQRPRKLLAEKVVYV
radioactive counts recorded in twenty minutes [4]: 78 counts | radioactive counts recorded in twenty minutes [5]: 490 counts

KLQSLTDVFLVNLPLADL [STRL33 segment 61-78]
radioactive counts recorded in twenty minutes [1]: 412.5 counts | radioactive counts recorded in twenty minutes [2]: 348.5 counts

AFQKASSIVYKKEGEQVE
COUNTS of radiolabeled gp120 retained [7]: 514 counts

MVGLILPGIVILSCYCII [CXCR4 segment 205-222]
radioactive counts recorded in twenty minutes [4]: 167 counts | radioactive counts recorded in twenty minutes [5]: 579 counts

KLSHSKGHQKRKALKTTV [CXCR4 segment 225-242]
radioactive counts recorded in twenty minutes [4]: 130 counts | radioactive counts recorded in twenty minutes [5]: 542 counts

LNTFQEFFGLNNCSSSNR [CCR5 segment 257-]
Counts per 20′ Average-background (background subtracted): 293 counts per 20′

EVEDQKEEV
COUNTS of radiolabeled gp120 retained [3]: 587 counts

AGLLLFIGLGIFFCVRCRHRR
number of radioactive decays (counts) counted: 2099 counts

KIEDSDTYICEVEDQ
COUNTS of radiolabeled gp120 retained [6]: 1088 counts

LRSMTDKYRLHLSVADLL [CXCR4 segment 69-86]
radioactive counts recorded in twenty minutes [4]: 160 counts | radioactive counts recorded in twenty minutes [5]: 572 counts

ICEVEDQKEEVQLLV
COUNTS of radiolabeled gp120 retained [6]: 1084 counts

QKHIAKRFCKCCSIFQQE [CCR5 segment 313-]
Counts per 20′ Average-background (background subtracted): 23 counts per 20′

ASSIVYKKEGEQVEF
COUNTS of radiolabeled gp120 retained [7]: 589 counts

IRSTHWEYYAMTSFHYTI
radioactive counts recorded in twenty minutes [1]: 1571.5 counts | radioactive counts recorded in twenty minutes [2]: 1807.5 counts

LAFTVEKLTGSGELW
COUNTS of radiolabeled gp120 retained [7]: 579 counts

VMVICYSGILKTLLRCRN [CCR5 segment 209-]
Counts per 20′ Average-background (background subtracted): −8 counts per 20′

CEVEDQKEEVQL
COUNTS of radiolabeled gp120 retained [3]: 561 counts

TDKYRLHLSVADLLFVIT [CXCR4 segment 73-90]
radioactive counts recorded in twenty minutes [4]: 92 counts | radioactive counts recorded in twenty minutes [5]: 504 counts

IIKNLKIED
COUNTS of radiolabeled gp120 retained [3]: 658 counts

LIIKNLKIEDSDTYI
COUNTS of radiolabeled gp120 retained [6]: 542 counts

LLTIDRYLAVVHAVFALK
Counts per 20′ Average-background (background subtracted): 31 counts per 20′

CYSGILKTLLRCRNEKKR
Counts per 20′ Average-background (background subtracted): 70 counts per 20′

PLIIKNLKIEDSDTYICE
COUNTS of radiolabeled gp120 retained [6]: 624 counts

LKSMTDIYLLNLAISDLF [CCR5 segment 61-78]
Counts per 20′ Average-background (background subtracted): 210 counts per 20′

ILKTLLRCRNEKKRHRAV
Counts per 20′ Average-background (background subtracted): 19 counts per 20′

FPLIIKNLK
COUNTS of radiolabeled gp120 retained [3]: 601 counts

YQKKLRSMTDKYRLHLSV [CXCR4 segment 65-82]
radioactive counts recorded in twenty minutes [4]: 99 counts | radioactive counts recorded in twenty minutes [5]: 511 counts

SLKILSKGKRGGHSSVST [CXCR4 segment 325-342]
radioactive counts recorded in twenty minutes [4]: 285 counts | radioactive counts recorded in twenty minutes [5]: 697 counts

GLVGNSLVLVISIFYHKL [STRL33 segment 45-62]
radioactive counts recorded in twenty minutes [1]: 164.5 counts | radioactive counts recorded in twenty minutes [2]: 95.5 counts

KASSIVYKKEGEQVEFSF
COUNTS of radiolabeled gp120 retained [7]: 536 counts

EEVQLLVFGATANSD
COUNTS of radiolabeled gp120 retained [10]: 19978 counts and 10408 counts

AFQKASSIVYKKEGE
COUNTS of radiolabeled gp120 retained [7]: 544 counts

AFQKASSIV
COUNTS of radiolabeled gp120 retained [8]: 595 counts

LAFTVEKLT
COUNTS of radiolabeled gp120 retained [8]: 501 counts

DIVVLAFQK
COUNTS of radiolabeled gp120 retained [8]: 686 counts

DRYLAVVHAVFALKARTV
Counts per 20′ Average-background (background subtracted): 62 counts per 20′

FPLIIKNLKIEDSDT
COUNTS of radiolabeled gp120 retained [6]: 539 counts

GNFLCKAVHVIYTVNLYS
radioactive counts recorded in twenty minutes [4]: 231 counts | radioactive counts recorded in twenty minutes [5]: 643 counts

EEVALLVFGLTANSD
COUNTS of radiolabeled gp120 retained [10]: 10890 counts and 13415 counts

ICEVEDQKE
COUNTS of radiolabeled gp120 retained [3]: 596 counts

NKIFLPTIYSIIFLTGIV [CXCR4 segment 37-54]
radioactive counts recorded in twenty minutes [4]: 138 counts | radioactive counts recorded in twenty minutes [5]: 550 counts

VEFKIDIVVLAFQKASSIVYK
COUNTS of radiolabeled gp120 retained [9]: 725 counts

LAFTVEKLTGSG
COUNTS of radiolabeled gp120 retained [8]: 608 counts

FLVNLPLADLVFVCTLPF [STRL33 segment 69-86]
radioactive counts recorded in twenty minutes [1]: 70.5 counts | radioactive counts recorded in twenty minutes [2]: 51.5 counts

TEEMGSGDYDSMKEPCFR [CXCR4 segment 13-30]
radioactive counts recorded in twenty minutes [4]: 41 counts | radioactive counts recorded in twenty minutes [5]: 453 counts

— US20030068615A1, “Polypeptides that bind HIV gp120 and related nucleic acids, antibodies, compositions, and methods of use” (priority 1999, published 2003)
